The text below walks through data of paper PMC3909264, “A Novel Acylaminoimidazole Derivative, WN1316, Alleviates Disease Progression via Suppression of Glial Inflammation in ALS Mouse Model” (PLoS ONE, 2014).

Where a name gives a salt, the structure may show the parent alone.

One data set relates to NAIP in THP-1 cells. The data set is described as follows: Western blot of NAIP in THP-1 cells. Format: cell-based, human. To be noted: 1 to 16 µM, 24 h. The procedure: Human monocytic leukemia cell line THP-1 (ATCC, TIB-202) was cultured in RPMI-1640 (Wako) supplemented with 10% fetal bovine serum, 100 U/ml penicillin, and 100 µg/ml streptomycin at 37°C in 5% CO2. Approximately 1×10^5 cells, which were pretreated with 1 to 16 µM WN1316 or DMSO in the presence or absence of 1 mM NAC for 24 h, were plated on a 96-well plate and exposed to 80 µM menadione for 16 h. Cell viability was measured by AlamarBlue assay. For Western blotting, cell lysates were prepared by using M-PER mammalian protein extraction reagent (Thermo scientific) according to standard procedure.
On the technique in general: A western blot detects proteins with antibodies after separation by electrophoresis.

Data set [1] can be described thus: Water solubility (stated property). Format: physicochemical.
A further data set has as its system ALS(SOD1^H46R) mice. The data set is described as follows: Histopathology, immunohistochemistry and Western blot of spinal cord, ventral root and muscle of treated ALS(SOD1^H46R) mice. The format is in vivo, mouse. The procedure:
At 21–22 weeks of age (late-symptomatic stage), mice were anesthetized with 2% isoflurane by inhalation. Anesthetized mice were transcardially perfused with physiological saline containing 10% heparin, followed by 4% paraformaldehyde (PFA) in 0.1 M phosphate buffer (PB) (pH 7.2). Spinal cord was removed, and lumbar segment was dissected.
For the preparation of paraffin-embedding tissue, lumbar segment was post-fixed with the same fixative for 48 h at 4°C and embedded in paraffin. Serial transverse sections (6 µm thickness) of lumbar segment (L4–L5) were sliced and stained with hematoxylin and eosin (H&E) for histopathological evaluation.
For the preparation of frozen-embedding tissue, lumbar segment was post-fixed with 4% PFA in 0.1 M PB (pH 7.2) for 24 h at 4°C, and then processed in 30% sucrose in 0.1 M PB (pH 7.2) containing 0.1% NaN3 for 96 h at 4°C (for cryoprotection) followed by frozen-embedding. Ten µm frozen sections were cut on a cryostat and used for fluorescent immunohistochemistry.
Immunohistochemical analyses with anti-ChAT, anti-Iba-1, anti-GFAP, anti-MAP2, anti-IL-1β and anti-8-OHdG antibodies were performed. For immunostaining with anti-ChAT antibody, the deparaffinized sections from late-symptomatic mice were pre-treated by autoclaving at 121°C for 5 min in HISTOFINE antigen retrieval solution (pH 9.0) (Nichirei). For immunostaining with anti-Iba-1 antibody, the deparaffinized sections from late-symptomatic mice were pre-treated by autoclaving at 121°C for 10 min in 10 mM citrate buffer (pH 6.0). For immunostaining with anti-GFAP antibody, the deparaffinized sections were used without any pretreatment. The sections were incubated with 0.3% H2O2 in methanol for 30 min and then with phosphate-buffered saline (PBS) (pH 7.2) containing 0.3% Triton X-100 for 30 min. After the treatment with PBS containing 5% normal goat serum (NGS) (Vector Laboratories)/0.05% Triton X-100 or 5% normal rabbit serum (NRS) (Vector Laboratories)/0.05% Triton X-100 for 1 h at room temperature, the sections were incubated with either anti-GFAP or anti-Iba-1 antibody in PBS containing 1.5% NGS/0.05% Triton X-100 or with anti-ChAT antibody in PBS containing 1.5% NRS/0.05% Triton X-100 overnight at 4°C. The sections were then incubated with HISTOFINE simple stain mouse MAX-PO (R) (Nichirei) or with HISTOFINE simple stain mouse MAX-PO (G) (Nichirei) for 1 hr at room temperature. The sections were visualized using 0.05% 3,3-diaminobenzidine tetrahydrochloride (DAB) (Wako) and 0.015% H2O2 in 50 mM Tris-HCl (pH 7.5) buffer, and the DAB reaction products were observed under a light microscope (BIOREVO BZ-9000, KEYENCE).
For double-immunostaining using frozen section, sections from late-symptomatic mice were washed with PBS, and treated with PBS containing 3% normal horse serum (NHS) (Vector Laboratories)/0.3% Triton X-100 for 1 h at room temperature. The sections were incubated with anti-IL-1β antibody in PBS containing 0.01% Triton X-100 for 48 h at 4°C, and then were incubated with CF^TM488A donkey anti-goat IgG (H+L) (1∶400, Biotium) in PBS containing 0.01% Triton X-100 for 1 h at room temperature. Next, the sections were incubated with anti-GFAP, anti-Iba-1 or anti-MAP2 antibody in PBS containing 0.01% Triton X-100 overnight at 4°C, and then were incubated with CF^TM555 goat anti-rabbit IgG (H+L) (1∶400, Biotium) in PBS containing 0.01% Triton X-100 for 1 h at room temperature. Fluorescent signals were observed under a light microscope (BIOREVO BZ-9000, KEYENCE).
For double-immunostaining of deparaffinized tissue, sections from late-symptomatic mice were pre-treated by autoclaving at 121°C for 10 min in 10 mM citrate buffer (pH 6.0). After the treatment with PBS containing 5%NGS/0.05% Triton X-100, the sections were incubated with anti-8-OHdG and anti-GFAP, anti-Iba-1 or anti-MAP2 antibodies in PBS containing 1.5% NGS/0.05% Triton X-100 overnight at 4°C. […]

As for `Cc1cc(C)c(N(C)CC(=O)Nc2nc(-c3ccccn3)c[nH]2)c(C)c1` [WN1316, 2-[mesityl(methyl)amino]-N-[4-(pyridin-2-yl)-1H-imidazol-2-yl] acetamide trihydrochloride], the NAIP protein level result with NAIP in THP-1 cells is reported as “dose-dependent upregulation”. The “water solubility (in words)” value in data set [1] is on record as “highly soluble in water”. Also, in the data set with ALS(SOD1^H46R) mice (10 µg/kg, 21–22 weeks of age), the “DNA oxidation (8-OHdG) in lumbar spinal cord” value is listed as “remarkable reduction”, the “IL-1β immunoreactivity in astrocytes” value is given as “diminished dramatically”, the “iNOS generation in lumbar spinal cord (Western blot)” value is “decreased” and the “large myelinated axons in the L5 ventral root” value is “preservation of large myelinated axons”. For the same molecule, the “GFAP and Iba-1 immunoreactivity in lumbar spinal cord anterior horn” value in the data set on ALS(SOD1^H46R) mice (10 µg/kg, 21–22 weeks of age, vs vehicle) is reported as “significant reduction”. The “protein levels of mutant SOD1 in NP-40-soluble and NP-40-insoluble/SDS-soluble fractions” value in the data set with ALS(SOD1^H46R) mice (10 µg/kg, vs vehicle, 21–22 weeks of age) is “no significant differences”. Moreover, the “loss of ChAT-positive motor neurons compared with non-Tg littermates” value in the data set with ALS(SOD1^H46R) mice (10 µg/kg/day, lumbar L4–L5, 21–22 weeks of age (vehicle 35.5%)) is recorded as 15.2%. Moreover, in the data set on ALS(SOD1^H46R) mice (21–22 weeks of age), the “skeletal muscle integrity (quadriceps femoris)” value is recorded as “preserved the skeletal muscle integrity”.
